Experimental data: patent publication US20250041624A1, “METHOD FOR ENHANCING ACTIVITY OF PHOTOSENSITIZER BY MAGNETIC FIELD” (PEKING UNIVERSITY, priority 2021, published 2025)

Columns and labels:
[1] = Reaction rate of KI with 1O2 (I3− absorbance at 350 nm) under light and magnetic field; type: physicochemical
Experimental: (1) The photosensitizers Rose Bengal (RB) and potassium iodide KI are dissolved in water, with the concentrations of photosensitizer and KI is 10 μmol/L and 10 mmol/L, respectively in the resulting solution. […] The above UV-vis absorption spectra tests are performed in the strength range of the magnetic field from 0 to 850 mT respectively.
(2) The photosensitizer chlorin e6 (Ce6, Chlorin e6) and potassium iodide KI are dissolved in water, with the concentrations of the photosensitizer and KI of 10 μmol/L and 10 mmol/L in the resulting solutions. In a magnetic field with certain strength, the solutions are exposed to a 635 nm LED lamp (light emitting diode) at a power of 5 mW·cm^−2, and tested for absorption spectra every 15 seconds over 5 min, and the absorbance at 350 nm is recorded to obtain absorbance versus time curves. The above UV-vis absorption spectra are obtained at a magnetic field strength range from 0 to 850 mT, respectively.
External magnetic field is supplied by East Transformer (Beijing) EM4 electromagnets. Ultraviolet-visible absorption spectra are tested with Agilent 8453 UV/Visible spectrometer equipped with Agilent 89090A thermostat (±0.1° C.).
Under irradiation conditions, photosensitizer is excited to produce singlet oxygen ^1O2, and KI reacts with ^1O2 to give I2 and target detector, iodine triion I3^−, characterized by absorption bands centered at 300 and 350 nm in UV-vis absorption spectrum. The reaction rate is R, which is proportional to the slope of absorbance-time curve of iodine triion I3^− at 350 nm.
In the present invention, the magnetic field effects (MFEs) is quantified by mfeR, the change rate of the reaction rate R, mfeR=(RB−R0)/R0×100%, where R0 is the reaction rate at a magnetic field strength of 0 mT and RB is the reaction rate at a magnetic field strength of B mT.
(3) The RB/KI solution in experiment (1) of this Example is placed in a magnetic field modulated with square wave (90 s for the first period, a magnetic field strength of 0 mT for the first 45 s and 100 mT for the last 45 s; 60 s for the last three cycles, a magnetic field strength of 0 mT for the first 30 s and 100 mT for the last 30 s). Under 561 nm LED (Light Emitting Diode) irradiation with 5 mW·cm^−2, absorption spectra are tested every 5 seconds over 5 min. and the absorbance at 350 nm is recorded, to obtain an absorbance-time curve, as shown in FIG. 6.

[2] = test system: HeLa cells; assay: 14-day culture and crystal violet staining of HeLa cells after light and magnetic field; type: cell-based
Experimental: (2) HeLa cells (1×10^3/well) are seeded in 6-well plates, 30 μL aqueous solution of RB (final concentration of 30 μM) or equal volume 0.01M PBS buffer is added as control, and, after 24 h incubation in DMEM (comprising FBS) medium, cells are washed 3 times with PBS buffer.
The cells are treated in the dark or with 10 min light (561 nm […], 5 mW·cm^−2) under magnetic field conditions at 0 mT, 250 mT, 800 mT respectively. Culture is continued in the dark, and media is changed every other day. After 14 days, it is rinsed with PBS buffer and methanol, and cells are stained with added 0.1 wt % aqueous solution of crystal violet, and the number of cells in the plate is shown in FIG. 9; and the relative cell activity of HeLa cells at a concentration of 30 μmol/L RB under the magnetic field conditions of 0 mT, 250 mT, 800 mT is shown in FIG. 10.

[3] = test system: HeLa cells; assay: H2DCFDA fluorescence imaging of intracellular oxidation in HeLa cells; type: cell-based; conditions: RB 30 μmol/L, FIG. 11
Experimental: (1) HeLa cells are seeded on sterile glass coverslips and placed in DMEM (comprising FBS) plates for 12 h. Then appropriate amount of 30 μmol/L RB or 0.01 mol/L PBS buffer is added, respectively. After 24 h in dark, H2DCFDA (dichlorofluorescein diacetate, ≥97%, purchased from Sigma-Aldrich) is added to give final concentration of 10 μmol/L and cells are incubated for another 30 min, and then are washed 3 times with PBS buffer.
Said HeLa cells are placed under the magnetic field conditions of 0 mT, 250 mT, 800 mT, respectively, without irradiation or with 10 min light (561 nm, 5 mW·cm^−2). Fluorescence images are obtained using Nikon A1R-si laser scanning confocal microscopy (488 nm excitation, 515±15 nm received fluorescence), where H2DCFDA is the indicator that reacts with cellular singlet oxygen ^1O2 to increase fluorescence emission intensity (excitation wavelength is 504 nm, and emission wavelength is 529 nm).
The change rate of fluorescence intensity in Hela cells added with RB under the conditions of light and magnetic field at 0, 250 or 800 mT is shown in FIG. 12. The change rate of fluorescence intensity is (IB−I0)/I0×100%, IB is the fluorescence intensity at magnetic field strength of B, and I0 is the fluorescence intensity without magnetic field. In FIG. 12, ** is the statistical probability p<0.01; *** is p<0.005, and p<0.05 is considered significant.

[4] = test system: HeLa cells; assay: Annexin V-FITC/PI apoptosis flow cytometry of HeLa cells; type: cell-based; conditions: RB 30 μmol/L; for percentage of apoptotic cells: light 561 nm 5 mW·cm−2 10 min
Experimental: (2) HeLa cells (2×10^4/well) are seeded in 6-well plates and cultured for 24 hours, added with RB solution (final concentration 30 μmol/L) or PBS buffer (final concentration 0.01 mol/L), and after treating 24 hours, cells are washed 3 times with PBS buffer.
The cells are placed under a magnetic field at 0, 250 or 800 mT, simultaneously with light (561 nm, 5 mW·cm^−2) or in the dark, and treated 10 minutes. After 24 hours incubation in the dark, cells are stained with Annexin V-FITC/PI Apoptosis Kit (available from Biyotime Biotechnology Co. Ltd), are detected by flow cytometry (BD FACSVerse, Becton Dickinson) and are statistically analysized three times every group, and results are shown in FIG. 13, in which Quadrant Q4 is for the number of healthy cells, Q1 is for the number of early apoptotic cells, Q2 is for the number of late apoptotic cells and Q3 is for the number of necrotic cells.

O=C1OC2(c3cc(I)c(O)c(I)c3Oc3c2cc(I)c(O)c3I)c2c(Cl)c(Cl)c(Cl)c(Cl)c21 [RB, Rose Bengal]
mfeR (change rate of reaction rate R of KI with 1O2) ([1]; RB 10 μmol/L, KI 10 mmol/L, 561 nm 5 mW·cm−2, maximum at MF=80-135 mT): 46%
mfeR (change rate of reaction rate R of KI with 1O2) ([1]; RB 10 μmol/L, KI 10 mmol/L, 561 nm 5 mW·cm−2, minimum at MF=14 mT): 33%
increase of R value on average compared to 0 mT ([1]; RB/KI, square-wave modulated field, 100 mT vs 0 mT, FIG. 7): about 45%
mfeR (change rate of reaction rate R of KI with 1O2) ([1]; RB, MF from 34 to 355 mT, FIG. 5): > 0%
mfeR (change rate of reaction rate R of KI with 1O2) ([1]; RB, MF from 50 to 220 mT, FIG. 5): > 20%
cytotoxicity against HeLa cells in the absence of light ([2]; RB 30 μM, dark, with or without magnetic field, FIG. 9): no cytotoxicity
cell numbers relative to PBS-only treatment ([2]; RB 30 μM, light alone (0 mT), 14 days, FIG. 9): significantly lower
cell numbers ([2]; RB 30 μM, light, 250 mT, 14 days, FIG. 9): the least
cell numbers ([2]; RB 30 μM, light, 800 mT, 14 days, FIG. 9): more under 800 mT conditions compared to 0 mT and 250 mT conditions
reduction of cell number relative to 0 mT ([2]; RB 30 μmol/L, light, 250 mT, FIG. 10): 17%
increase of cell number relative to 0 mT ([2]; RB 30 μmol/L, light, 800 mT, FIG. 10): 32%
fluorescence intensity of HeLa cells (H2DCFDA) ([3]; absence of magnetic field, vs PBS): stronger than that with PBS
fluorescence intensity of HeLa cells (H2DCFDA) ([3]; irradiation 561 nm 10 min and 250 mT): stronger than those under the absence of magnetic field and the magnetic field of 800 mT
percentage of apoptotic cells ([4]; 250 mT): 75.9%
percentage of apoptotic cells ([4]; 800 mT): 32.9%
percentage of apoptotic cells ([4]; no magnetic field): 63.8%
increase of percentage of apoptotic cells vs no magnetic field ([4]; light, 250 mT): 19%
